In BigSolDB 2.1:

O=C(O)c1cc2ccccc2cc1O
solubility (mole fraction)
Conditions | in acetic acid | in acetone | in ethanol | in ethyl acetate | in isobutanol | in isopropanol | in methanol | in methyl acetate | in n-butanol | in n-propanol
293.15 K | 0.00556 | 0.0363 | 0.0218 | 0.0222 | 0.0147 | 0.0234 | 0.0131 | 0.0204 | 0.0268 | 0.0234
298.15 K | 0.00672 | 0.0389 | 0.0258 | 0.0251 | 0.0174 | 0.0267 | 0.0155 | 0.0225 | 0.03 | 0.0259
303.15 K | 0.00786 | 0.0423 | 0.0294 | 0.0278 | 0.0207 | 0.0306 | 0.018 | 0.025 | 0.0346 | 0.0288
308.15 K | 0.00913 | 0.0461 | 0.0331 | 0.0309 | 0.0236 | 0.035 | 0.0208 | 0.0286 | 0.0382 | 0.0323
313.15 K | 0.0105 | 0.0506 | 0.037 | 0.0338 | 0.0279 | 0.0406 | 0.0239 | 0.0318 | 0.0431 | 0.0372
318.15 K | 0.0121 | 0.0547 | 0.0415 | 0.0375 | 0.0316 | 0.0446 | 0.0271 | 0.0349 | 0.0466 | 0.0402
323.15 K | 0.014 | 0.0607 | 0.0469 | 0.0417 | 0.0377 | 0.0514 | 0.0313 | 0.0402 | 0.0529 | 0.0453
328.15 K | 0.0164 | 0.0661 | 0.0537 | 0.0468 | 0.0421 | 0.0565 | 0.0358 | 0.0447 | 0.0579 | 0.0513
333.15 K | 0.0192 | – | 0.0619 | 0.0533 | 0.0501 | 0.0649 | 0.0415 | – | 0.0663 | 0.0574
